Results on 5 compounds are retold here after patent US20030119061A1, “Structure-based drug design methods for identifying D-Ala-D-Ala ligase inhibitors as antibacterial drugs” (priority 2001, published 2003).

SMILES strings stand for the structures. pIC50, pKd: −log10 of the molar value.

For test [1], the target named is D-Ala-D-Ala ligase omega loop (D domain) (Escherichia coli, UniProt P07862). Put plainly: Proteolysis (trypsin) assay of omega loop closure. Format: biochemical. The text has this:
(§1) We have developed an in vitro assay to look at the closure of the omega loop (i.e., the D domain). The closure of the omega loop is probed by proteolysis.

The target in test [2] is T1, D-Ala-D-Ala ligase (Escherichia coli, UniProt P07862). Put plainly: Stopped flow fluorescence quenching studies of nucleotide binding to ligase. The following applies: for pKd: partially closed complex, product of Kd1 and Kd2, read-out: final (overall) Kd. As for the experimental part:
We have discovered a significant fluorescence quenching upon binding of ATP and ADP, which we have exploited to examine mechanistic features of ligase. We have carried out stopped flow studies to look at the binding of ATP and ADP to ligase. These studies were carried out at 4° C. We observe a single exponential fluorescent quenching which is completed in <20 ms. […] This confirms our previous hypothesis about ligase, namely that the enzyme undergoes conformational changes that are an important and integral part of its enzymatic mechanism. This enzyme appears to fall into the category of “induced fit”.
The enzyme undergoes a conformational change to form the partially closed complex EA*. […] For ADP the conformational change increases the affinity of the nucleotide seven-fold for the partially closed complex, with respect to the initial collision complex, leading to an overall Kd of 50 μM. […] To dissociate the ligand, the enzyme has to relax back to the open form. […] In some cases, it can be advantageous for the inhibitor to trigger a further conformational change, perhaps the closure of the omega loop of domain D, leading to a fully closed form of the enzyme.
Stopped flow studies have added to the understanding of the mechanism by which ligase binds ligands, and have confirmed previous suspicions about “induced fit” mechanism. Determining the affinity of high affinity inhibitors (low nM) will be difficult by equilibrium binding methods or steady state enzyme kinetics. Stopped flow studies may well be the only way that the affinity of high affinity inhibitors can be determined with any degree of confidence. The studies can be carried out, for example, using the methods described by Eccleston, J. F. “Stopped-flow Spectrophotometric Techniques” in Spectrophotometry and Spectrofluorimetry a Practical Approach, Ed. D. A. Harris & C. L. Bashford, IRL Press, 1987, p. 137-164.

For test [3], the target named is T1, D-Ala-D-Ala ligase. Put plainly: Affinity for D-Ala-D-Ala ligase relative to ATP (method not given). In kind it is binding. To be noted: given in brackets after ATP.
Excerpt: as §1

Test [4] has as its target T1, D-Ala-D-Ala ligase. Put plainly: D-Ala-D-Ala ligase IC50 determination (PK/LDH coupled assay). In kind it is biochemical. To be noted: control in 1× core buffer; read-out: value (IC50 or Ki) for D-Ala-D-Ala ligase inhibition. The text has this:
Inhibition of D-Ala-D-Ala ligase can be assayed for using the pyruvate kinase/lactate dehydrogenase (PK/LDH) assay described in Example 2. In the bacterial cell wall synthesis process, the ligase catalyzes the conversion of ATP to ADP concurrent with the ligation of two D-alanine residues. PK then regenerates ATP from the ADP thus created simultaneously with the conversion of phosphopyruvate to pyruvate. LDH catalyzes the reduction of pyruvate to lactate by converting NADH to NAD^+. By monitoring the production rate of NAD^+, D-Ala-D-Ala ligase activity can be ascertained.
The purine derivatives of Example 1 were dissolved in dimethylsulfoxide (DMSO) at a concentration of 100 mM on the day of screening, using a vortex mixer if necessary for dissolution. The solutions were kept at room temperature until screening was completed.
A 10 mM NADH (Sigma) stock solution was prepared fresh on the day of screening by dissolving 32 μmol NADH in 3.2 ml double-distilled water. The NADH solution was kept on ice. […]
At t=18-19 minutes, the substrate solution was taken from 25° C. to a Spectromax® UV-vis spectrophotometer. At t=20 minutes, within a 30 second timeframe, 125 μl of substrate solution was added to each well of columns 1-4, and the absorbance at 340 nm was read. […]

Where [5] appears, read: together with a D-Ala site binding molecule (phosphinate, D-Ala-D-Ala or cycloserine).

With `Nc1ncnc2c1ncn2[C@@H]1O[C@H](COP(=O)(O)OP(=O)(O)O)[C@@H](O)[C@H]1O` [ADP], the “omega loop closure (protection from trypsin proteolysis)” value (“omega loop closure” below) in test [1] (setting [5]) was “stabilize the omega loop closure”. Further, in test [2] (ADP vs ATP), the “affinity for D-Ala-D-Ala ligase relative to ATP” value is listed as “three”. Moreover, in test [2] (stopped flow, 4° C.), the “increase in affinity by the conformational change (partially closed vs initial collision complex)” value is “seven”, the “net dissociation rate constant (k−2)” value was found to be 72 s⁻¹ and the pKd was 4.30.
On to `Nc1ncnc2c1ncn2[C@@H]1O[C@H](COP(=O)(O)OP(=O)(O)OP(O)(O)=S)[C@@H](O)[C@H]1O` [ATPgS], for which the “omega loop closure” value in test [1] (setting [5]) was “stabilize the omega loop closure”.
Still for that read-out and setting: under `Nc1ncnc2c1ncn2[C@@H]1O[C@H](COP(=O)(O)OP(=O)(O)NP(=O)(O)O)[C@@H](O)[C@H]1O` [AMPPNP] stands “does not support the omega loop closure”.
As to `Nc1ncnc2c1ncn2[C@@H]1O[C@H](COP(=O)(O)OP(=O)(O)OP(=O)(O)O)[C@@H](O)[C@H]1O` [ATP, adenosine triphosphate], the “omega loop closure” value in test [1] (nucleotide alone, no D-Ala site binding molecule) is “cannot close the omega loop”; in test [1] (setting [5]), “stabilize the omega loop closure”. In addition, in test [2] (stopped flow, 4° C.), the “increase in affinity by the conformational change (partially closed vs initial collision complex)” value is recorded as 3.2 fold. Further, the pKd was 3.80 in test [2] (stopped flow, 4° C.) and 3.52 in test [3]. The koff in test [2] (stopped flow, 4° C., read-out: net dissociation rate constant (k−2)) came to 126 s⁻¹.
On to `N[C@@H]1CON=C1O` [Cycloserine, D-cycloserine], for which, in test [4], the pIC50 was around 3.82.
